{"source": "patent US20230021483A1", "about": "“[…] […] METHOD AND CLASSIFICATION OF PHARMACEUTICAL COMPONENTS BY USING TRANSCRIPTOMES” (National Institutes of Biomedical Innovation, Health and …, priority 2016, published 2023)", "tested_on": "preferentially upregulated genes in LV, SP, LN", "assay": "Z-score-based differential gene expression analysis (adjuvant group- or adjuvant-associated genes, 40 module mapping, TargetMine annotation)", "format": "in vivo, C57BL/6 mice", "details": "ID; for Adar 1425405_a_at (Group G1, Modules 20) / Adar 1434268_at (Group G1, Modules 20) / Ddx58 1436562_at (Group G1, Modules 20) / Ddx58 1456890_at (Group G1, Modules 20) / Eif2ak2 1422005_at (Group G1, Modules 20) / G3bp2 1421323_a_at (Group G1, Modules 20) / Gm9706///Isg15 1431591_s_at (Group G1, Modules 20) / H2-T10///H2-T22///H2-T9 1449875_s_at (Group G1, Modules 20) / Ifih1 1426276_at (Group G1, Modules 20) / Ifit1 1450783_at (Group G1, Modules 20) / Ifit3 1449025_at (Group G1, Modules 20) / Irf7 1417244_a_at (Group G1, Modules 20) / Irgm1 1418825_at (Group G1, Modules 20) / Mndal 1426906_at (Group G1, Modules 20) / Pml 1448757_at (Group G1, Modules 20) / Pml 1456103_at (Group G1, Modules 20) / Rnf213 1455500_at (Group G1, Modules 20) / Rsad2 1436058_at (Group G1, Modules 20) / Shisa5 1423986_a_at (Group G1, Modules 20) / Shisa5 1437503_a_at (Group G1, Modules 20) / Stat1 1450033_a_at (Group G1, Modules 20) / Stat1 1450034_at (Group G1, Modules 20) / Tdrd7 1426716_at (Group G1, Modules 20) / Tor1aip2 1418115_s_at (Group G1, Modules 20) / Tor1aip2 1418116_at (Group G1, Modules 20) / Tor1aip2 1435526_at (Group G1, Modules 20) / Trim12a 1437432_a_at (Group G1, Modules 20) / Uba7 1426970_a_at (Group G1, Modules 20): LV", "procedure,_shortened": "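Gene groups for each organ were built from combined z-score cutoffs across adjuvants, ranging from z>1 to z>3. Scores came from fold changes standardized per gene over the whole organ data set, with the three replicate z-scores added per adjuvant; sums above 3 marked preferential expression.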", "data": [{"substance": "K3: B class CpG ODN (ATCGACTCTCGAGCGTTCTC), TLR9 ligand (chemistry not given here)", "values": [{"measurement": "z sum, 1457035_at Al607873", "setting": "LN, Module#(LN) 40", "result": "−0.26"}, {"measurement": "Adar 1425405_a_at (Group G1, Modules 20)", "setting": "sample x1", "result": "−0.3"}, {"measurement": "Adar 1434268_at (Group G1, Modules 20)", "setting": "sample x1", "result": "−0.6"}, {"measurement": "Ddx58 1436562_at (Group G1, Modules 20)", "setting": "sample x1", "result": "−0.3"}, {"measurement": "Ddx58 1456890_at (Group G1, Modules 20)", "setting": "sample x1", "result": "−0.4"}, {"measurement": "Eif2ak2 1422005_at (Group G1, Modules 20)", "setting": "sample x1", "result": "−0.5"}, {"measurement": "G3bp2 1421323_a_at (Group G1, Modules 20)", "setting": "sample x1", "result": "−0.4"}, {"measurement": "Gm9706///Isg15 1431591_s_at (Group G1, Modules 20)", "setting": "sample x1", "result": "−0.5"}, {"measurement": "H2-T10///H2-T22///H2-T9 1449875_s_at (Group G1, Modules 20)", "setting": "sample x1", "result": "−0.3"}, {"measurement": "Ifih1 1426276_at (Group G1, Modules 20)", "setting": "sample x1", "result": "−0.4"}, {"measurement": "Ifit1 1450783_at (Group G1, Modules 20)", "setting": "sample x1", "result": "−0.5"}, {"measurement": "Ifit3 1449025_at (Group G1, Modules 20)", "setting": "sample x1", "result": "−0.5"}, {"measurement": "Irf7 1417244_a_at (Group G1, Modules 20)", "setting": "sample x1", "result": "−0.4"}, {"measurement": "Irgm1 1418825_at (Group G1, Modules 20)", "setting": "sample x1", "result": "−0.5"}, {"measurement": "Mndal 1426906_at (Group G1, Modules 20)", "setting": "sample x1", "result": "−0.3"}, {"measurement": "Pml 1448757_at (Group G1, Modules 20)", "setting": "sample x1", "result": "−0.4"}, {"measurement": "Pml 1456103_at (Group G1, Modules 20)", "setting": "sample x1", "result": "−0.5"}, {"measurement": "Rnf213 1455500_at (Group G1, Modules 20)", "setting": "sample x1", "result": "−0.5"}, {"measurement": "Rsad2 1436058_at (Group G1, Modules 20)", "setting": "sample x1", "result": "−0.5"}, {"measurement": "Shisa5 1423986_a_at (Group G1, Modules 20)", "setting": "sample x1", "result": "−0.5"}, {"measurement": "Shisa5 1437503_a_at (Group G1, Modules 20)", "setting": "sample x1", "result": "−0.5"}, {"measurement": "Stat1 1450033_a_at (Group G1, Modules 20)", "setting": "sample x1", "result": "−0.5"}, {"measurement": "Stat1 1450034_at (Group G1, Modules 20)", "setting": "sample x1", "result": "−0.4"}, {"measurement": "Tdrd7 1426716_at (Group G1, Modules 20)", "setting": "sample x1", "result": "−0.3"}, {"measurement": "Tor1aip2 1418115_s_at (Group G1, Modules 20)", "setting": "sample x1", "result": "−0.3"}, {"measurement": "Tor1aip2 1418116_at (Group G1, Modules 20)", "setting": "sample x1", "result": "−0.4"}, {"measurement": "Tor1aip2 1435526_at (Group G1, Modules 20)", "setting": "sample x1", "result": "−0.4"}, {"measurement": "Trim12a 1437432_a_at (Group G1, Modules 20)", "setting": "sample x1", "result": "−0.6"}, {"measurement": "Uba7 1426970_a_at (Group G1, Modules 20)", "setting": "sample x1", "result": "−0.2"}, {"measurement": "Adar 1425405_a_at (Group G1, Modules 20)", "setting": "sample x2", "result": "−0.7"}, {"measurement": "Adar 1434268_at (Group G1, Modules 20)", "setting": "sample x2", "result": "−0.5"}, {"measurement": "Ddx58 1436562_at (Group G1, Modules 20)", "setting": "sample x2", "result": "−0.4"}, {"measurement": "Ddx58 1456890_at (Group G1, Modules 20)", "setting": "sample x2", "result": "−0.4"}, {"measurement": "Eif2ak2 1422005_at (Group G1, Modules 20)", "setting": "sample x2", "result": "−0.5"}, {"measurement": "G3bp2 1421323_a_at (Group G1, Modules 20)", "setting": "sample x2", "result": "−0.5"}, {"measurement": "Gm9706///Isg15 1431591_s_at (Group G1, Modules 20)", "setting": "sample x2", "result": "−0.5"}, {"measurement": "H2-T10///H2-T22///H2-T9 1449875_s_at (Group G1, Modules 20)", "setting": "sample x2", "result": "−0.5"}, {"measurement": "Ifih1 1426276_at (Group G1, Modules 20)", "setting": "sample x2", "result": "−0.4"}, {"measurement": "Ifit1 1450783_at (Group G1, Modules 20)", "setting": "sample x2", "result": "−0.5"}, {"measurement": "Ifit3 1449025_at (Group G1, Modules 20)", "setting": "sample x2", "result": "−0.5"}, {"measurement": "Irf7 1417244_a_at (Group G1, Modules 20)", "setting": "sample x2", "result": "−0.4"}, {"measurement": "Irgm1 1418825_at (Group G1, Modules 20)", "setting": "sample x2", "result": "−0.6"}, {"measurement": "Mndal 1426906_at (Group G1, Modules 20)", "setting": "sample x2", "result": "−0.3"}, {"measurement": "Pml 1448757_at (Group G1, Modules 20)", "setting": "sample x2", "result": "−0.6"}, {"measurement": "Pml 1456103_at (Group G1, Modules 20)", "setting": "sample x2", "result": "−0.6"}, {"measurement": "Rnf213 1455500_at (Group G1, Modules 20)", "setting": "sample x2", "result": "−0.5"}, {"measurement": "Rsad2 1436058_at (Group G1, Modules 20)", "setting": "sample x2", "result": "−0.5"}, {"measurement": "Shisa5 1423986_a_at (Group G1, Modules 20)", "setting": "sample x2", "result": "−0.5"}, {"measurement": "Shisa5 1437503_a_at (Group G1, Modules 20)", "setting": "sample x2", "result": "−0.3"}, {"measurement": "Stat1 1450033_a_at (Group G1, Modules 20)", "setting": "sample x2", "result": "−0.5"}, {"measurement": "Stat1 1450034_at (Group G1, Modules 20)", "setting": "sample x2", "result": "−0.5"}, {"measurement": "Tdrd7 1426716_at (Group G1, Modules 20)", "setting": "sample x2", "result": "−0.6"}, {"measurement": "Tor1aip2 1418115_s_at (Group G1, Modules 20)", "setting": "sample x2", "result": "−0.3"}, {"measurement": "Tor1aip2 1418116_at (Group G1, Modules 20)", "setting": "sample x2", "result": "−0.5"}, {"measurement": "Tor1aip2 1435526_at (Group G1, Modules 20)", "setting": "sample x2", "result": "−0.5"}, {"measurement": "Trim12a 1437432_a_at (Group G1, Modules 20)", "setting": "sample x2", "result": "−0.5"}, {"measurement": "Uba7 1426970_a_at (Group G1, Modules 20)", "setting": "sample x2", "result": "−0.3"}]}]}
